In patent publication US8952024B2, “Herbicidal pyrimidone derivatives” (E I du Pont de Nemours and Company, priority 2009, dated 2015):

Tests used:
Assay type in all cases: in vivo
[1] = test system: goosegrass (Eleusine indica); assay: Test D pre-/postemergence plant response
Source text: (§1) Seeds of plant species selected from bermudagrass (Cynodon dactylon), Surinam grass (Brachiaria decumbens), large crabgrass (Digitaria sanguinalis), green foxtail (Setaria viridis), goosegrass (Eleusine indica), johnsongrass (Sorghum halepense), kochia (Kochia scoparia), morningglory (pitted morningglory, Ipomoea lacunosa), nutsedge (purple nutsedge, Cyperus rotundus), ragweed (common ragweed, Ambrosia elatior), black mustard (Brassica nigra), guineagrass (Panicum maximum), dallisgrass (Paspalum dilatatum), barnyardgrass (Echinochloa crus-galli), sandbur (southern sandbur, Cenchrus echinatus), sowthistle (common sowthistle, Sonchus oleraceous), prickly sida (Sida spinosa), Italian ryegrass (Lolium multiflorum), purslane (common purslane, Portulaca oleracea), signalgrass (broadleaf signalgrass, Brachiaria platyphylla), groundsel (common groundsel, Senecio vulgaris), chickweed (common chickweed, Stellaria media), dayflower (Virginia (VA) dayflower, Commelina virginica), bluegrass (annual bluegrass, Poa annua), naked crabgrass (Digitaria nuda), itchgrass (Rottboellia cochinchinensis), quackgrass (Elytrigia repens), field bindweed (Convolvulus arvensis), spanishneedles (Bidens bipinnata), mallow (common mallow, Malva sylvestris) and Russian thistle (Salsola kali), were planted into a blend of loam soil and sand and treated preemergence with test chemicals formulated in a non-phytotoxic solvent mixture which included a surfactant. At the same time, plants from these weed species were treated with postemergence applications of the test chemicals formulated in the same manner. Plants ranged in height from 2 to 18 cm (1- to 4-leaf stage) for postemergence treatments.
(§2) Treated plants and controls were maintained in a greenhouse for 14 to 21 days, after which time all species were visually evaluated and compared to controls. Plant response ratings, summarized in Table D, are based on a scale of 0 to 100 where 0 is no effect and 100 is complete control. A dash (-) response means no test result.

[2] = test system: black mustard (Brassica nigra); assay: Test D pre-/postemergence plant response
Source text: as §1, §2

[3] = test system: dallisgrass (Paspalum dilatatum); assay: Test D pre-/postemergence plant response
Source text: as §1, §2

[4] = test system: prickly sida (Sida spinosa); assay: Test D pre-/postemergence plant response
Source text: as §1, §2

[5] = test system: sandbur (southern sandbur, Cenchrus echinatus); assay: Test D pre-/postemergence plant response
Source text: as §1, §2

[6] = test system: field bindweed (Convolvulus arvensis); assay: Test D pre-/postemergence plant response
Source text: as §1, §2

[7] = test system: bermudagrass (Cynodon dactylon); assay: Test D pre-/postemergence plant response
Source text: as §1, §2

[8] = test system: Italian ryegrass (Lolium multiflorum); assay: Test D pre-/postemergence plant response
Source text: as §1, §2

[9] = test system: sowthistle (common sowthistle, Sonchus oleraceous); assay: Test D pre-/postemergence plant response; conditions: Postemergence
Source text: as §1, §2

[10] = test system: sunflower (common oilseed sunflower, Helianthus annuus); assay: Test B pre-/postemergence plant response; conditions: Preemergence; for Sunflower plant response rating: 250 g ai/ha, 0 to 100 scale
Outline: (§3)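 Plants treated either at seeding (loam/sand soil) or postemergence at 2 to 18 cm height, using a surfactant-containing non-phytotoxic solvent formulation. Evaluation was visual after 13 to 15 days, 0 to 100 scale relative to controls.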

[11] = test system: nightshade (eastern black nightshade, Solanum ptycanthum); assay: Test B pre-/postemergence plant response; conditions: Preemergence; for Nightshade plant response rating: 250 g ai/ha, 0 to 100 scale
Outline: as §3

[12] = test system: galium (catchweed bedstraw, Galium aparine); assay: Test B pre-/postemergence plant response; conditions: Preemergence; for Galium plant response rating: 250 g ai/ha, 0 to 100 scale
Outline: as §3

[13] = Postemergence, 31 g ai/ha, scale 0 to 100
[14] = Postemergence, 62 g ai/ha, scale 0 to 100 (0 no effect, 100 complete control)
[15] = Postemergence, 125 g ai/ha, scale 0 to 100 (0 no effect, 100 complete control)
[16] = Postemergence, 250 g ai/ha, scale 0 to 100 (0 no effect, 100 complete control)
[17] = 62 g ai/ha, scale 0 to 100 (0 no effect, 100 complete control)
[18] = 125 g ai/ha, scale 0 to 100 (0 no effect, 100 complete control)
[19] = 250 g ai/ha, scale 0 to 100 (0 no effect, 100 complete control)
[20] = 31 g ai/ha, scale 0 to 100 (0 no effect, 100 complete control)
[21] = 125 g ai/ha, scale 0 to 100, 0 no effect, 100 complete control
[22] = Preemergence, 62 g ai/ha, scale 0 to 100
[23] = Preemergence, 125 g ai/ha, scale 0 to 100
[24] = Preemergence, 250 g ai/ha, scale 0 to 100
[25] = Postemergence, 31 g ai/ha, scale 0 to 100 (0 no effect, 100 complete control)

Compound: CCCCn1c(-c2cc(F)cc(F)c2)ncc(C(=O)C2=C(O)C3CCC(C3)C2=O)c1=O (stereo not shown) [Compound 245]
- Plant response rating, Goosegrass [1, 13]: 70
- Plant response rating, Goosegrass [1, 14]: 70
- Plant response rating, Goosegrass [1, 15]: 70
- Plant response rating, Goosegrass [1, 16]: 75
- Plant response rating, Black Mustard [2, 13]: 75
- Plant response rating, Black Mustard [2, 14]: 95
- Plant response rating, Black Mustard [2, 15]: 98
- Plant response rating, Black Mustard [2, 16]: 98
- Plant response rating, Dallisgrass [3, 13]: 65
- Plant response rating, Dallisgrass [3, 14]: 75
- Plant response rating, Dallisgrass [3, 15]: 80
- Plant response rating, Dallisgrass [3, 16]: 85
- Plant response rating, Prickly Sida [4, 13]: 30
- Plant response rating, Prickly Sida [4, 14]: 50
- Plant response rating, Prickly Sida [4, 15]: 50
- Plant response rating, Prickly Sida [4, 16]: 70
- Plant response rating, Sandbur [5, 13]: 65
- Plant response rating, Sandbur [5, 14]: 70
- Plant response rating, Sandbur [5, 15]: 75
- Plant response rating, Sandbur [5, 16]: 75
- Plant response rating, Field Bindweed [6, 13]: 50
- Plant response rating, Field Bindweed [6, 14]: 50
- Plant response rating, Field Bindweed [6, 15]: 60
- Plant response rating, Field Bindweed [6, 16]: 70
- Plant response rating, Bermudagrass [7, 13]: 80
- Plant response rating, Bermudagrass [7, 14]: 80
- Plant response rating, Bermudagrass [7, 15]: 80
- Plant response rating, Bermudagrass [7, 16]: 80
- Plant response rating, Ryegrass, Italian [8, 13]: 5
- Plant response rating, Ryegrass, Italian [8, 14]: 5
- Plant response rating, Ryegrass, Italian [8, 15]: 20
- Plant response rating, Ryegrass, Italian [8, 16]: 50
- Plant response rating, Sowthistle ([9]; 31 g ai/ha, scale 0 to 100): 95
- Plant response rating, Sowthistle [9, 17]: 95
- Plant response rating, Sowthistle [9, 18]: 95
- Plant response rating, Sowthistle [9, 19]: 95
- Plant response rating, Sunflower [10, 20]: 45
- Plant response rating, Sunflower [10, 17]: 70
- Plant response rating, Sunflower [10, 21]: 80
- Sunflower plant response rating [10]: 95
- Plant response rating, Nightshade [11, 20]: 98
- Plant response rating, Nightshade [11, 17]: 100
- Plant response rating, Nightshade [11, 21]: 100
- Nightshade plant response rating [11]: 100
- Plant response rating, Galium [12, 20]: 20
- Plant response rating, Galium [12, 17]: 60
- Plant response rating, Galium [12, 21]: 95
- Galium plant response rating [12]: 95

Compound: COCCn1c(-c2cc(F)cc(F)c2)ncc(C(=O)C2=C(O)C3CCC(C3)C2=O)c1=O (stereo not shown) [Compound 243, 2-(3,5-difluorophenyl)-5-[(2-hydroxy-4-oxobicyclo[3.2.1]oct-2-en-3-yl)carbonyl]-3-(2-methoxyethyl)-4(3H)-pyrimidinone]
- Plant response rating, Goosegrass [1, 13]: 65
- Plant response rating, Goosegrass [1, 14]: 70
- Plant response rating, Goosegrass [1, 15]: 70
- Plant response rating, Goosegrass [1, 16]: 75
- Plant response rating, Goosegrass [1, 22]: 100
- Plant response rating, Goosegrass [1, 23]: 100
- Plant response rating, Goosegrass [1, 24]: 100
- Plant response rating, Black Mustard [2, 13]: 50
- Plant response rating, Black Mustard [2, 14]: 75
- Plant response rating, Black Mustard [2, 15]: 98
- Plant response rating, Black Mustard [2, 16]: 98
- Plant response rating, Black Mustard [2, 22]: 100
- Plant response rating, Black Mustard [2, 23]: 100
- Plant response rating, Black Mustard [2, 24]: 100
- Plant response rating, Dallisgrass [3, 13]: 75
- Plant response rating, Dallisgrass [3, 14]: 80
- Plant response rating, Dallisgrass [3, 15]: 90
- Plant response rating, Dallisgrass [3, 16]: 90
- Plant response rating, Dallisgrass [3, 22]: 100
- Plant response rating, Dallisgrass [3, 23]: 100
- Plant response rating, Dallisgrass [3, 24]: 100
- Plant response rating, Prickly Sida [4, 13]: 60
- Plant response rating, Prickly Sida [4, 14]: 65
- Plant response rating, Prickly Sida [4, 15]: 70
- Plant response rating, Prickly Sida [4, 16]: 80
- Plant response rating, Prickly Sida [4, 22]: 100
- Plant response rating, Prickly Sida [4, 23]: 100
- Plant response rating, Prickly Sida [4, 24]: 100
- Plant response rating, Sandbur [5, 13]: 75
- Plant response rating, Sandbur [5, 14]: 75
- Plant response rating, Sandbur [5, 15]: 75
- Plant response rating, Sandbur [5, 16]: 80
- Plant response rating, Sandbur [5, 23]: 100
- Plant response rating, Sandbur [5, 24]: 100
- Plant response rating, Field Bindweed [6, 13]: 65
- Plant response rating, Field Bindweed [6, 14]: 70
- Plant response rating, Field Bindweed [6, 15]: 70
- Plant response rating, Field Bindweed [6, 16]: 70
- Plant response rating, Field Bindweed [6, 22]: 100
- Plant response rating, Field Bindweed [6, 23]: 100
- Plant response rating, Field Bindweed [6, 24]: 100
- Plant response rating, Bermudagrass [7, 13]: 75
- Plant response rating, Bermudagrass [7, 14]: 85
- Plant response rating, Bermudagrass [7, 15]: 95
- Plant response rating, Bermudagrass [7, 16]: 95
- Plant response rating, Bermudagrass [7, 22]: 100
- Plant response rating, Bermudagrass [7, 23]: 100
- Plant response rating, Bermudagrass [7, 24]: 100
- Plant response rating, Ryegrass, Italian [8, 13]: 0
- Plant response rating, Ryegrass, Italian [8, 14]: 20
- Plant response rating, Ryegrass, Italian [8, 15]: 30
- Plant response rating, Ryegrass, Italian [8, 16]: 65
- Plant response rating, Ryegrass, Italian [8, 23]: 98
- Plant response rating, Ryegrass, Italian [8, 24]: 100
- Plant response rating, Sowthistle ([9]; 31 g ai/ha, scale 0 to 100): 90
- Plant response rating, Sowthistle [9, 17]: 90
- Plant response rating, Sowthistle [9, 18]: 95
- Plant response rating, Sowthistle [9, 19]: 98
- Plant response rating, Sunflower [10, 20]: 80
- Plant response rating, Sunflower [10, 17]: 85
- Plant response rating, Sunflower [10, 21]: 95
- Sunflower plant response rating [10]: 95
- Plant response rating, Nightshade [11, 20]: 90
- Plant response rating, Nightshade [11, 17]: 98
- Plant response rating, Nightshade [11, 21]: 98
- Nightshade plant response rating [11]: 98
- Plant response rating, Galium [12, 20]: 85
- Plant response rating, Galium [12, 17]: 90
- Plant response rating, Galium [12, 21]: 98
- Galium plant response rating [12]: 100

Compound: COCCn1c(-c2cccc(F)c2)ncc(C(=O)C2=C(O)C3CCC(C3)C2=O)c1=O (stereo not shown) [Compound 235]
- Plant response rating, Goosegrass [1, 13]: 75
- Plant response rating, Goosegrass [1, 14]: 75
- Plant response rating, Goosegrass [1, 15]: 75
- Plant response rating, Goosegrass [1, 16]: 75
- Plant response rating, Black Mustard [2, 25]: 80
- Plant response rating, Black Mustard [2, 14]: 80
- Plant response rating, Black Mustard [2, 15]: 98
- Plant response rating, Black Mustard [2, 16]: 98
- Plant response rating, Dallisgrass [3, 13]: 70
- Plant response rating, Dallisgrass [3, 14]: 75
- Plant response rating, Dallisgrass [3, 15]: 80
- Plant response rating, Dallisgrass [3, 16]: 80
- Plant response rating, Prickly Sida [4, 13]: 65
- Plant response rating, Prickly Sida [4, 14]: 65
- Plant response rating, Prickly Sida [4, 15]: 70
- Plant response rating, Prickly Sida [4, 16]: 75
- Plant response rating, Sandbur [5, 13]: 75
- Plant response rating, Sandbur [5, 14]: 75
- Plant response rating, Sandbur [5, 15]: 75
- Plant response rating, Sandbur [5, 16]: 75
- Plant response rating, Field Bindweed [6, 13]: 60
- Plant response rating, Field Bindweed [6, 14]: 65
- Plant response rating, Field Bindweed [6, 15]: 65
- Plant response rating, Field Bindweed [6, 16]: 70
- Plant response rating, Bermudagrass [7, 25]: 80
- Plant response rating, Bermudagrass [7, 14]: 95
- Plant response rating, Bermudagrass [7, 15]: 95
- Plant response rating, Bermudagrass [7, 16]: 95
- Plant response rating, Ryegrass, Italian [8, 13]: 5
- Plant response rating, Ryegrass, Italian [8, 14]: 5
- Plant response rating, Ryegrass, Italian [8, 15]: 5
- Plant response rating, Ryegrass, Italian [8, 16]: 35
- Plant response rating, Sowthistle ([9]; 31 g ai/ha, scale 0 to 100): 98
- Plant response rating, Sowthistle [9, 17]: 98
- Plant response rating, Sowthistle [9, 18]: 98
- Plant response rating, Sowthistle [9, 19]: 98
